Data taken from patent US7741334B2, “Low dose therapy for treating viral infections” (priority 2004, dated 2010).

What was measured:
[1] = Population PK analysis of plasma and urine data, study ACH443-011, 1×20 mg tablet PO; conditions: human, in vivo
Procedure: The PK model created included an individual compartmental PK analysis using ADAPT-II® and Population PK analysis using an iterative two-stage population modeling technique (IT2S®) of plasma and urine data from a study of healthy subjects, n=29, 1×20 mg tablet PO (ACH443-011). FIG. 1 illustrates the PK model of Elvucitabine according to a three compartment model characterized by two absorption peaks, each associated with a lag time and a first order absorption rate constant.
FIG. 2 illustrates an example of individual fit using a Population PK analysis (IT2S).

[2] = Therapeutic window from PK versus PD relationship; conditions: human
Description: Pharmacokinetics and pharmacodynamics modeling was used to explore potential dosing regimens for Elvucitabine. A pharmacokinetics (PK) model was developed to describe both the plasma concentration-time data and excreted urinary amounts from previously completed studies with Elvucitabine. With the PK model in hand and pharmacodynamics (PD) results of previously completed studies, the relationship of PK and PD from an efficacy and toxicity standpoint is obtained. From the results of the PK and PD studies, a therapeutic window of Elvucitabine is defined and simulated dosing regimens ranging from 5 mg BID to 100 mg Q1 week were explored using ADAPT II® Pharmacokinetic and Pharmacodynamic Systems Analysis Software. From the simulated dosing regimen results, ten dosing regimens were identified allowing maintenance therapy with Elvucitabine at levels effective against both HIV and HBV while avoiding bone toxicity.
From the foregoing results, a therapeutic window of Elvucitabine was identified. It has been determined that a 5 mg QD dose is effective for HBV and, therefore, a plasma AUCss/24 of 300 μg·h/L was identified as the efficacy threshold.

apparent volume of distribution (VSS) [1]: 1600 L | fraction unbound [1]: 0.396
SMILES: Nc1nc(=O)n([C@H]2C=C[C@@H](CO)O2)cc1F [Elvucitabine, 4-amino-5-fluoro-1-((2R,5S)-5-(hydroxymethyl)-2,5-dihydrofuran-2-yl)pyrimidin-2(1H)-one]
Cmax [2]: > 40 ng/mL | central compartment (plasma) Cmin at onset of toxicity [2]: ≥ 23 ng/mL
